# According to PubChem BioAssay (NCI):
#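 These data come from cells grown in 96-well plates and exposed to compound for 48 hours at five concentrations. TGI marks complete inhibition of growth.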
# How the values were obtained:
# Assay in all cases: NCI-60 cell line screen, 48 h
# [1] = test system: MCF7 breast
# [2] = test system: NCI-H522 lung
# [3] = test system: CCRF-CEM leukemia
# [4] = test system: PC-3 prostate
# [5] = test system: T-47D breast
# [6] = test system: SF-539 CNS
# [7] = test system: MALME-3M melanoma
# [8] = test system: MDA-N
# [9] = test system: MDA-MB-435
# [10] = test system: NCI/ADR-RES ovarian
Structure (SMILES),TGI [1] [µM],TGI [2] [µM],TGI [3] [µM],TGI [4] [µM],TGI [5] [µM],TGI [6] [µM],TGI [7] [µM],TGI [8] [µM],TGI [9] [µM],TGI [10] [µM]
CCOP(=O)(OCC)OC1c2[nH]cc(C(=O)OCc3ccccc3)c2-c2cc(C(=O)OC)[nH]c2C1OC (stereo not given),> 100,29.1,> 100,> 100,24,> 43.7,60,> 100,> 100,59.5
O=C(NNC(=O)c1csc(NC(=S)NC2CCCCC2)n1)c1ccccc1,> 100,28.4,68.6,48.9,17.3,31.6,43.2,31.1,33.1,50.8
O=C(N/N=C/c1ccccc1)c1cccc2nc3ccccc3nc12,> 100,> 100,> 100,> 100,> 100,> 100,> 100,> 100,> 100,> 100
CCOC(=O)c1nnc2c(C#N)c(-c3ccccc3)c(C)n2c1N,> 100,70.5,> 100,> 100,> 100,> 100,65.2,> 100,> 100,> 100
BrCC[N+]12CC[N+](CCBr)(CC1)C2,> 100,> 100,> 100,> 100,> 100,> 100,> 100,> 100,> 100,> 100
O=C(OCCNC(=O)N1CC1)OCCNC(=O)N1CC1,> 10,> 10,> 10,> 10,> 10,> 10,> 10,> 10,> 10,> 10
C=C1C[C@H](O)[C@H](Br)C(C)(C)C12CCC(C)(Cl)C(Br)C2 (stereo not given in full),11.2,15,75,1.77,13.5,42.2,16.6,10.8,11.7,20.7
COc1ccc(-c2c(C#N)c(S)n(NS(=O)(=O)c3ccccc3)c(=O)c2C#N)cc1,> 100,73,> 100,> 100,> 100,61.6,> 100,> 100,> 100,> 100
ClCCCCCc1c2nc(c(CCCCCCl)c3ccc([nH]3)c(CCCCCCl)c3ccc([nH]3)c(CCCCCCl)c3nc1C=C3)C=C2,> 100,> 100,> 100,> 100,> 100,> 100,> 100,> 100,> 100,> 100
O=C1CC(=O)NC(=NNS(=O)(=O)c2ccc(Cl)cc2)N1,> 100,> 100,> 100,> 100,> 100,> 100,> 100,> 100,> 100,> 100
CCCCCCCCCCCCCCCCCCOCC(O)COP(=O)(O)OCC1OC(n2ccc(N)nc2=O)C(O)C1O (stereo not given),> 100,41.8,18.6,20.7,> 100,34.4,> 100,> 100,> 100,> 100
O=C(c1cc2c(c3ccccc13)NC1(CCCCC1)N=C2C(F)(F)F)C(F)(F)F,12.2,6.95,13.1,12.4,13.5,5.59,17.4,14.2,12.5,17
CCN1CN(c2ccccc2)C2(CCN(CC(CC3OCCO3)c3ccc(F)cc3)CC2)C1=O (stereo not given),7.22,26.6,> 43.1,> 100,38.9,25.5,43.1,> 26.3,38.2,> 92.7
O=C(N/N=C(/COc1ccccc1)N=Cc1cccnc1)c1ccncc1,> 100,> 100,> 100,> 100,> 100,> 100,> 100,> 100,> 100,> 100
COC(=O)CCC(NC(=O)OC(C)(C)C)C(=O)NC(Cc1ccc(NC(=O)CCCC(C)=O)cc1)C(=O)NC(CCC(=O)OC)C(=O)OC (stereo not given),> 100,> 100,> 100,> 100,> 100,> 100,> 100,> 100,> 100,> 100
O=C(c1ccccc1)N1C(=S)N(c2ccccn2)C(=Nc2ccccc2)C1=Nc1ccccc1,> 100,5.61,> 24.7,35.8,> 62.1,44.9,53.4,> 50.7,> 58,> 48.3
CC(=O)OC(Cc1c(O)c2c(C)cccc2oc1=O)C(C)(C)O (stereo not given),> 100,> 100,> 100,> 100,> 100,> 100,> 100,> 100,> 100,> 100

Structure (SMILES),TGI [1] [µM],TGI [2] [µM],TGI [3] [µM],TGI [4] [µM],TGI [5] [µM],TGI [6] [µM],TGI [7] [µM],TGI [8] [µM],TGI [9] [µM],TGI [10] [µM]
CC(=O)N(C(C)=O)c1cc2c3c(c1)CCCN3CCC2,> 10,> 10,> 10,> 10,> 10,> 10,> 10,> 10,> 10,> 10
Cc1n(Cc2ccccc2)nc2sc(N)n[n+]12,> 100,> 100,> 100,> 100,> 100,> 100,> 100,> 100,> 100,> 100
CC1C(C#N)(C#N)C(C#N)=C(N)C1(Cl)[N+](=O)[O-] (stereo not given),47.4,6.1,5.12,32.9,42.7,25.2,18.7,21.3,31.6,34.2
CCOC(=O)c1c(NC(=S)Nc2ccccc2)sc2c1CCOC2,> 100,> 100,> 100,> 100,> 100,> 100,> 100,> 100,> 100,> 100
COc1ccc(/C=C2\C[C@H]3[C@@H]4CCC5=CC(=O)CC[C@]5(C)[C@H]4CC[C@]3(C)C2=O)cc1OC,> 100,9.87,47.2,> 100,> 100,> 100,> 100,> 100,> 100,> 100
CN(C)c1ccc(C=C2C(=O)NC(=S)NC2=O)c2ccccc12,> 100,37.5,> 100,> 100,> 100,> 100,> 100,> 100,> 100,> 100
CN1CC2CN(Cc3ccccc3)CCN2c2cccnc21 (stereo not given),> 100,> 100,> 100,> 100,> 100,> 100,> 100,> 100,> 100,> 100
CCOC(=O)C(Cl)(NC(=O)OCc1ccccc1)C(F)(F)F (stereo not given),> 100,> 100,> 100,> 100,> 100,> 100,> 100,> 100,> 100,> 100
N#Cc1c(-c2ccccc2)c(CN2CCCCC2)c(=O)n2c1[nH]c1ccccc12,> 100,61.7,> 100,> 100,> 100,> 100,> 100,> 100,> 100,> 100
CCOC(=O)NN(C(=O)OCC)c1c(C)cc(C)cc1C,> 100,> 100,> 100,> 100,> 100,> 100,> 100,> 100,> 100,> 100
O=C(c1ccc(Cl)cc1)N(C(=S)OCCOc1ccccc1)c1ccccc1,32.4,43.7,42.7,56.7,56.5,34,70.7,33.3,30.7,76.3
CN(C)Cc1cc(N=Nc2ccc(Cl)cc2)cc(CN(C)C)c1O,21.3,5.97,7,18.8,33.6,23.2,28.6,29.2,24.6,13.6
N#Cc1c(O)c(/C=N/c2ncccn2)c(=O)n2c1[nH]c1ccccc12,> 100,> 100,> 100,> 100,> 100,> 100,> 100,> 100,> 100,> 100
CC(=O)OC(C)(C)CCC(=O)[C@](C)(O)[C@H]1[C@H](O)C[C@@]2(C)[C@@H]3CCc4c(cc(OC5OC(CO)C(O)C(O)C5O)c(O)c4C)C3(C)C(=O)C[C@]12C (stereo not given in full),> 100,> 100,> 100,> 100,> 100,> 100,> 100,> 100,> 100,> 100
Fc1ccc(C(OCCN2CC3CCC(C2)N3CCCc2ccccc2)c2ccc(F)cc2)cc1,10.7,5.15,15.6,10.4,6.28,3.63,11.2,11.8,4.68,15.2
CNC1(C(=O)O)CC1,> 100,> 100,> 100,> 100,> 100,> 100,> 100,> 100,> 100,> 100
CC1(C)[C@@H]2C[C@H]1c1cnc(-c3ccccn3)cc1C2CCCCC[C@@H]1c2cc(-c3ccccn3)ncc2[C@@H]2C[C@H]1C2(C)C (stereo not given in full),> 100,> 100,6.28,> 100,> 100,0.456,> 100,97.1,> 100,> 100
